# Source: patent US12459912B2 (priority 2020, dated 2025)
# Columns and labels:
# [1] = target: T1, AChE (Acetylcholinesterase) (Homo sapiens, UniProt P22303); assay: AChE/Enzymatic; type: biochemical
# T1 construct: purchased R&D Systems
# [2] = target: NAV1.5 (tetrodotoxin-resistant voltage-gated sodium channel) (Homo sapiens, UniProt Q14524); assay: cell-based
# [3] = target: OPRD1 (Opioid Receptor Delta 1) (Homo sapiens, UniProt P41143); assay: OPRD1/cAMP; type: cell-based
# [4] = target: ADRB1 (Adrenergic Receptor β1) (Homo sapiens, UniProt P08588); assay: ADRB1/cAMP; type: cell-based
# [5] = target: DRD1 (Dopamine Receptor D1) (Homo sapiens, UniProt P21728); assay: DRD1/cAMP; type: cell-based
# Sequence of DRD1 (Dopamine Receptor D1) (P21728 whole entry): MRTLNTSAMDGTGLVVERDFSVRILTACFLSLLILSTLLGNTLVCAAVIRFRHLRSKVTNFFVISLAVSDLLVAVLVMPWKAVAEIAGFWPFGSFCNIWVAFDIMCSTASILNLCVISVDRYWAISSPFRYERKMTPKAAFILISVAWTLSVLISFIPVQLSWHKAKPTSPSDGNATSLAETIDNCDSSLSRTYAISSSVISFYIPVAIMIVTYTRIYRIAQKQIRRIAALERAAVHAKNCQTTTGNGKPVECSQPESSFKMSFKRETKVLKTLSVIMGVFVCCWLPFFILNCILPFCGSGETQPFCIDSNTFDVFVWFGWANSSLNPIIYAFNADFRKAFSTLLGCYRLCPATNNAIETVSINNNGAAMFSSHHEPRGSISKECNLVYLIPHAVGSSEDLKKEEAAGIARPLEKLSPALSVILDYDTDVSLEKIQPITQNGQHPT
# [6] = target: CNR1 (Cannabinoid Receptor 1) (Homo sapiens, UniProt P21554); assay: CNR1/cAMP; type: cell-based
# [7] = target: T2, CAV1.2 (Voltage-gated L-type calcium channel) (Homo sapiens, UniProt Q13936); assay: CAV1.2/Ion Channel; type: cell-based
# T2 construct: expressed in transfected cells
# [8] = target: T3, 5-Hydroxytryptamine (Serotonin) Receptor 3A (5-HT3A) (Homo sapiens, UniProt P46098); assay: 5-HT3A/Ion Channel; type: cell-based; details: EC50 (μM)
# T3 construct: expressed in transfected cells
# T3 sequence (P46098 24-478): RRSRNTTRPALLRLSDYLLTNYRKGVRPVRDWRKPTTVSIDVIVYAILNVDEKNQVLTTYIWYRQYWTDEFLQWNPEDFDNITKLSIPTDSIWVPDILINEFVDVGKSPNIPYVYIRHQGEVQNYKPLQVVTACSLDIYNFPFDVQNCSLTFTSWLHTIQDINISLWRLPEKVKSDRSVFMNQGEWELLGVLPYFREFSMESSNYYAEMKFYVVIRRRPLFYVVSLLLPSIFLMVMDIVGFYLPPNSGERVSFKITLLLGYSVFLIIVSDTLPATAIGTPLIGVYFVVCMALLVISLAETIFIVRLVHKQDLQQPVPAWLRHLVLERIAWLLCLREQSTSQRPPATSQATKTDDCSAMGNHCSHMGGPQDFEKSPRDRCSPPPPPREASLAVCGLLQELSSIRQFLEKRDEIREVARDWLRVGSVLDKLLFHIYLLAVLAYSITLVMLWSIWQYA
# [9] = tested on: T4, GABAA (Gamma-aminobutyric acid Receptor A); type: cell-based
# T4 construct: other: opener
# [10] = target: T5, LCK (Lymphocyte Cell-Specific Protein-Tyrosine Kinase (Src family)) (Homo sapiens, UniProt P06239); assay: LCK/Binding (KINOMEscan)
# T5 construct: made in house; host or cells: E. coli BL21-derived host (T7 phage) or HEK-293
# [11] = target: 5-Hydroxytryptamine (Serotonin) Receptor 1B (5-HT1B) (Homo sapiens, UniProt P28222); assay: 5-HT1B/cAMP; type: cell-based; details: EC50 (μM)
# Sequence of 5-Hydroxytryptamine (Serotonin) Receptor 1B (5-HT1B) (P28222 whole entry): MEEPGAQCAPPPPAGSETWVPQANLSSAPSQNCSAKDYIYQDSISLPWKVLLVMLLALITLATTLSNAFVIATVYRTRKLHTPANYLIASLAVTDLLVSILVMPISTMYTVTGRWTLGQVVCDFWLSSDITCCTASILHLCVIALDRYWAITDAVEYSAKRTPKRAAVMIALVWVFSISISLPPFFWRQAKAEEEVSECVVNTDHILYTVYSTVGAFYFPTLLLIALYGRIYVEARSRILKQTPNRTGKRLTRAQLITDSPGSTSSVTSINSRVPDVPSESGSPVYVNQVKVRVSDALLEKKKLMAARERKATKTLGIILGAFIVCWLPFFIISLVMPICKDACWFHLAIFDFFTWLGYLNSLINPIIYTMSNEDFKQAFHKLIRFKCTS
# COX2 (Cyclooxygenase 2) = target: T6, COX2 (Cyclooxygenase 2) (Homo sapiens, UniProt P35354); assay: COX2/Enzymatic; type: biochemical
# T6 construct: purchased BPS Bioscience
# [12] = target: 5-Hydroxytryptamine (Serotonin) Receptor 1A (5-HT1A) (Homo sapiens, UniProt P08908); assay: 5-HT1A/cAMP; type: cell-based
# [13] = target: T7, NMDAR (1A/2B) (N-methyl-D-aspartate (NMDA) Glutamate Receptor 1A/2B) (Homo sapiens, UniProt Q05586+Q13224); assay: NMDAR (1A/2B)/Ion Channel; type: cell-based
# T7 construct: expressed in transfected cells
# T7 sequence (Q13224 27-1484, other chains not shown): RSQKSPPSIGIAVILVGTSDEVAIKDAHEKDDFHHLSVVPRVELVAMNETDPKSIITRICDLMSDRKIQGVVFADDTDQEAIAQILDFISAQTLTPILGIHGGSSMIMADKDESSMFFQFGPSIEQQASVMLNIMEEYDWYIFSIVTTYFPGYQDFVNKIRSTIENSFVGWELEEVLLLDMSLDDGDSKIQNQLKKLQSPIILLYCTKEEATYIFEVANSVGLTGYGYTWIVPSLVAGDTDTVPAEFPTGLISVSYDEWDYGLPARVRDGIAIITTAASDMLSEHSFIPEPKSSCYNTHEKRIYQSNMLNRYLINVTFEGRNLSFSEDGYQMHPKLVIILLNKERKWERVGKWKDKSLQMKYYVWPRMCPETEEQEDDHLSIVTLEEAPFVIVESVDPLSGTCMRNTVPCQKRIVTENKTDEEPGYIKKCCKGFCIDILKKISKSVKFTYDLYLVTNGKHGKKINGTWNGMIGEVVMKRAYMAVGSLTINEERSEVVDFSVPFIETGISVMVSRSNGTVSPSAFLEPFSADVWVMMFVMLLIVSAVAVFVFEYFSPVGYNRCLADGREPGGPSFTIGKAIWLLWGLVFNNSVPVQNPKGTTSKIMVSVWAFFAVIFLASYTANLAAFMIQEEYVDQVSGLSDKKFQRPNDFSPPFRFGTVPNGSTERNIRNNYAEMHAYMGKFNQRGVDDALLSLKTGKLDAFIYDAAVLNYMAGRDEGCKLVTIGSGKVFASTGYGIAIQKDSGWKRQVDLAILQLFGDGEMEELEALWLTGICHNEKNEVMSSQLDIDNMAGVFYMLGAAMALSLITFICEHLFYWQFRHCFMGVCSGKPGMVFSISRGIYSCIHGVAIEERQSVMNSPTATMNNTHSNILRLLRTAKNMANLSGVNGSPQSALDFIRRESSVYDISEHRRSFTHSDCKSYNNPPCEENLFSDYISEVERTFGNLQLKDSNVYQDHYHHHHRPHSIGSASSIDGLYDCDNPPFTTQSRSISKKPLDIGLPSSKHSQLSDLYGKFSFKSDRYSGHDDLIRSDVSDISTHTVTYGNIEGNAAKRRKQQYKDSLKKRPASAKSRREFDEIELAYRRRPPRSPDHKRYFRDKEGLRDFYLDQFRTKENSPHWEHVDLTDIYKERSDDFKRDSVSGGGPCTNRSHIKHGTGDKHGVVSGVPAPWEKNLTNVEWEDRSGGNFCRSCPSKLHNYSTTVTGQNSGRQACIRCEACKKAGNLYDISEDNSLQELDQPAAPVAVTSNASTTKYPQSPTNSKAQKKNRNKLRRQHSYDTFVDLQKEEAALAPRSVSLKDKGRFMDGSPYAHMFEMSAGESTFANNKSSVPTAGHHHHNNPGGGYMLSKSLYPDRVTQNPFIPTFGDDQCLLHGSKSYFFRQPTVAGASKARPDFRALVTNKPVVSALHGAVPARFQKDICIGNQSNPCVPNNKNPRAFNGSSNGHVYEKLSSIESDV
# [14] = target: 5-Hydroxytryptamine (Serotonin) Receptor 2A (5-HT2A) (Homo sapiens, UniProt P28223); assay: 5-HT2A/Calcium Flux; type: cell-based; details: EC50 (μM)
# [15] = target: CNR2 (Cannabinoid Receptor 2) (Homo sapiens, UniProt P34972); assay: CNR2/cAMP; type: cell-based
# [16] = target: CHRM2 (Muscarinic acetylcholine Receptor M2) (Homo sapiens, UniProt P08172); assay: CHRM2/cAMP; type: cell-based
# Sequence of CHRM2 (Muscarinic acetylcholine Receptor M2) (P08172 whole entry): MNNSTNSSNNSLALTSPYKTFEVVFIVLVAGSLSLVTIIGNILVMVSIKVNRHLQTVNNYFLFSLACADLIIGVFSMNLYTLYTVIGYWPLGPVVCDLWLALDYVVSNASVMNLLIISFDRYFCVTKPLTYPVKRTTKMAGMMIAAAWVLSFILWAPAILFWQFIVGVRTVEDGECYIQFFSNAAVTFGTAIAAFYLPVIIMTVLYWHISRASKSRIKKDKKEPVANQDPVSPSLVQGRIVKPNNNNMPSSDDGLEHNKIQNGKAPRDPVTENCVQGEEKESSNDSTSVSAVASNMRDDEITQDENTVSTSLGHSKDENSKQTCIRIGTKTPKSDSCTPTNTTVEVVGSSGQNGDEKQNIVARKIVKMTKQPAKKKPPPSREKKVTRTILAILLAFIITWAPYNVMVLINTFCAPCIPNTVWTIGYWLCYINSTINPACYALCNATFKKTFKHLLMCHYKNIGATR
# [17] = target: GR (Nuclear Hormone Glucocorticoid Receptor) (Homo sapiens, UniProt P04150); assay: GR/NHR Protein Interaction; type: cell-based
# [18] = target: ADRA1A (Adrenergic Receptor on α1A) (Homo sapiens, UniProt P35348); assay: ADRA1A/Calcium Flux; type: cell-based; details: EC50 (μM)
# Sequence of ADRA1A (Adrenergic Receptor on α1A) (P35348 whole entry): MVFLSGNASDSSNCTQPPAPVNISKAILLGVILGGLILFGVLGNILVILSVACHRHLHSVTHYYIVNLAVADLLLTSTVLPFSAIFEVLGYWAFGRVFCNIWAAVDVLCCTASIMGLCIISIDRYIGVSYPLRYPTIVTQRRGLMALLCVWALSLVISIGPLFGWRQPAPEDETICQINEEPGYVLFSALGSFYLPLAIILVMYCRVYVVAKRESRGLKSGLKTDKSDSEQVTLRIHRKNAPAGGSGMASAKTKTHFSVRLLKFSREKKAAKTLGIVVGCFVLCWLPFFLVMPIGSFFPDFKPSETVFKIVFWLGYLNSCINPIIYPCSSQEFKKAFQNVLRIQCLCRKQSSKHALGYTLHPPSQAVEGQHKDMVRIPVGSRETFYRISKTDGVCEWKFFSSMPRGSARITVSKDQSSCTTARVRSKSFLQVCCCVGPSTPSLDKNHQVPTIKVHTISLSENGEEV
# [19] = target: OPRK1 (Opioid Receptor Kappa 1) (Homo sapiens, UniProt P41145); assay: OPRK1/cAMP; type: cell-based
# [20] = target: CHRM1 (Muscarinic acetylcholine Receptor M1) (Homo sapiens, UniProt P11229); assay: cell-based
# [21] = target: ADRA2A (Adrenergic Receptor on α2A) (Homo sapiens, UniProt P08913); assay: ADRA2A/cAMP; type: cell-based
# Sequence of ADRA2A (Adrenergic Receptor on α2A) (P08913 whole entry): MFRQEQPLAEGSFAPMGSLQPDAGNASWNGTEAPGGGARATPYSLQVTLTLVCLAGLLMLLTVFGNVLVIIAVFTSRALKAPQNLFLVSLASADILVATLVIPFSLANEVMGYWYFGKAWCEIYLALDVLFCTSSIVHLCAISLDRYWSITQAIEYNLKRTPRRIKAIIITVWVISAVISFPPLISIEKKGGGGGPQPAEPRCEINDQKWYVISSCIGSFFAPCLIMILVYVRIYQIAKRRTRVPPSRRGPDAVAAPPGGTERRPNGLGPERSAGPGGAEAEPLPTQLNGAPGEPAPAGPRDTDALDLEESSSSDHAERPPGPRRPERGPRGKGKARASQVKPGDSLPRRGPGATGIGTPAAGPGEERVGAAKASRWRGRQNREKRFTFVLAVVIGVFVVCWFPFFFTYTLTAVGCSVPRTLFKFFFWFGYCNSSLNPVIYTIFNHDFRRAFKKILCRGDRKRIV
# [22] = target: CHRM3 (Muscarinic acetylcholine Receptor M3) (Homo sapiens, UniProt P20309); assay: cell-based
# [23] = target: T8, SERT (Serotonin transporter) (Homo sapiens, UniProt P31645); assay: cell-based
# T8 construct: expressed in transfected cells
# [24] = target: T9, PDE4D2 (cAMP-specific 3′,5′-cyclic phospho-diesterase) (Homo sapiens, UniProt Q08499); assay: PDE4D2/Enzymatic; type: biochemical
# T9 construct: purchased Signal Chem
# [25] = target: T10, VEGFR2 (Vascular endothelial growth factor receptor 2 (KDR tyrosine kinase)) (Homo sapiens, UniProt P35968); assay: biochemical; type: binding
# T10 construct: made in house; host or cells: E. coli BL21-derived host (T7 phage) or HEK-293
# [26] = target: T11, ROCK1 (Rho Associated Coiled-Coil Containing Protein Kinase 1) (Homo sapiens, UniProt Q13464); assay: ROCK1/Binding (KINOMEscan)
# T11 construct: made in house; host or cells: E. coli BL21-derived host (T7 phage) or HEK-293
# [27] = target: OPRM1 (Opioid Receptor Mu) (Homo sapiens, UniProt P35372); assay: cell-based
# [28] = target: HRH2 (Histamine Receptor H2) (Homo sapiens, UniProt P25021); assay: HRH2/cAMP; type: cell-based
# [29] = target: HRH1 (Histamine Receptor H1) (Homo sapiens, UniProt P35367); assay: cell-based
# [30] = target: T12, DAT (Dopamine transporter) (Homo sapiens, UniProt Q01959); assay: DAT/Transporter (fluorescent substrate uptake); type: cell-based
# T12 construct: expressed in transfected cells
# KvLQT1/minK = target: T13, KvLQT1/minK (Homo sapiens, UniProt P51787); assay: KvLQT1/minK/Ion Channel; type: cell-based
# T13 construct: expressed in transfected cells
# [31] = target: CCKAR (Cholecystokinin Receptor A) (Homo sapiens, UniProt P32238); assay: CCKAR/Calcium Flux; type: cell-based
# [32] = target: ADORA2A (Adenosine Receptor A2A) (Homo sapiens, UniProt P29274); assay: ADORA2A/Calcium Flux; type: cell-based
# [33] = target: EDNRA (Endothelin Receptor Type A) (Homo sapiens, UniProt P25101); assay: EDNRA/Calcium Flux; type: cell-based
# Sequence of EDNRA (Endothelin Receptor Type A) (P25101 21-427): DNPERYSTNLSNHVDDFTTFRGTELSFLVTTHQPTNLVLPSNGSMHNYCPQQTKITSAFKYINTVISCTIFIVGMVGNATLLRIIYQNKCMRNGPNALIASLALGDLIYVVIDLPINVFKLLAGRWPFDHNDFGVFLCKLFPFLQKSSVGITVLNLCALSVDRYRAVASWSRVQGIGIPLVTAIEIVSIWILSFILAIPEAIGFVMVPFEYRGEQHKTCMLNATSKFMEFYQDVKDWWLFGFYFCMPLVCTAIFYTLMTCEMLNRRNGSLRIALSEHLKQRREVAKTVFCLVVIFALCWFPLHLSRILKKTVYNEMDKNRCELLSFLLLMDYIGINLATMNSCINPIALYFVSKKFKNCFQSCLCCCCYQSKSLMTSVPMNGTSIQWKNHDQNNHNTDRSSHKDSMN
# Sequence of OPRD1 (Opioid Receptor Delta 1) (P41143 whole entry): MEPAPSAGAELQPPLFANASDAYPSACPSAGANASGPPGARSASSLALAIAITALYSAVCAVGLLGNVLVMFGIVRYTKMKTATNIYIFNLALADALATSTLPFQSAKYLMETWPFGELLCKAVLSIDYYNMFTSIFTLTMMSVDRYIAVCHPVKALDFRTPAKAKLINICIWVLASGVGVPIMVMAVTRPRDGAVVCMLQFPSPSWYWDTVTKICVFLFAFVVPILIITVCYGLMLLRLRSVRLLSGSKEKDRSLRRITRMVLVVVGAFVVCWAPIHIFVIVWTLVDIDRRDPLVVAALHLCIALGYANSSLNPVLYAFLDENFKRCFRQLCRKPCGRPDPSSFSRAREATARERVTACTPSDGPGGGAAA
smiles,measurement,setting,value
CNC(C)Cc1ccc2ccsc2c1 (stereo not drawn) [drawing 522],EC50,[1],> 10 µM
same,EC50,[2],> 10 µM
same,EC50,[3],> 10 µM
same,EC50,[4],> 10 µM
same,EC50,[5],> 10 µM
same,EC50,[6],> 10 µM
same,EC50,[7],> 10 µM
same,EC50,[8]; blocker,5.18 µM
same,EC50,[8]; opener,> 10 µM
same,EC50,[9],> 10 µM
same,EC50,[10],> 10 µM
same,EC50,[11]; agonist,0.024 µM
same,EC50,[11]; antagonist,> 10 µM
same,EC50,COX2 (Cyclooxygenase 2),> 10 µM
same,EC50,[12],> 10 µM
same,EC50,[13],> 10 µM
same,EC50,[14]; agonist,0.959 µM
same,EC50,[14]; antagonist,1.72 µM
same,EC50,[15],> 10 µM
same,EC50,[16],> 10 µM
same,EC50,[17],> 10 µM
same,EC50,[18]; agonist,> 10 µM
same,EC50,[18]; antagonist,3.43 µM
same,EC50,[19],> 10 µM
same,EC50,[20],> 10 µM
same,EC50,[21],> 10 µM
same,EC50,[22],> 10 µM
same,EC50,[23],> 10 µM
same,EC50,[24],> 10 µM
same,EC50,[25],> 10 µM
same,EC50,[26],> 10 µM
same,EC50,[27],> 10 µM
same,EC50,[28],> 10 µM
same,EC50,[29],> 10 µM
same,EC50,[30],0.32 µM
same,EC50,KvLQT1/minK,> 10 µM
same,EC50,[31],> 10 µM
same,EC50,[32],> 10 µM
same,EC50,[33],> 10 µM
